According to US12006553B2, “Companion diagnostics for mitochondrial inhibitors” (priority 2017, dated 2024):
One block for each compound: values may come before it.

Key:
[1] = test system: DoxyR-CSCs (Doxy-resistant (DoxyR)-MCF7 cells); experiment: Sensitivity of Doxy-resistant CSCs to other metabolic therapies; assay type: cell-based
Excerpt: One concern with doxycycline therapy is the potential for the development of drug-resistance in CSCs. To investigate this issue, the inventors developed and characterized the phenotypic behavior of Doxy-resistant (DoxyR)-MCF7 cells.

cancer stem cells (CSCs) = experiment: CSC propagation / 3D spheroid (mammosphere) formation on low-attachment plates; assay type: cell-based; settings: for IC50: CSCs, read-out: IC-50 for inhibition of CSC propagation; for inhibition of CSC propagation / 3D spheroid formation (in words): anchorage-independent growth
Excerpt: Because CSCs are relatively “rare”, little is known about their metabolic properties. […] Under such conditions, the majority (more than 90%) of “bulk” cancer cells die via apoptosis, while only the CSCs survive and propagate, ultimately resulting in the formation of 3D spheroid structures after about 5 days. Each 3D spheroid is clonally formed from a single CSC. For breast CSCs, these 3D spheroids are also known as tumor-spheres or mammospheres. The generation of these 3D spheroids is thought to mimic the process of tumor formation and/or metastasis, thus providing a model for drug discovery and functional validation.

[2] = test system: HMGR (3-hydroxy-3-methylglutaryl-CoA-reductase); experiment: Inhibition of mevalonate metabolism; settings: statin-like

SMILES: CCN(CC)CCCC(C)Nc1ccnc2cc(Cl)ccc12 (centres unmarked) [Chloroquine]
sensitivity of DoxyR-CSCs to the drug [1]: sensitive

SMILES: [Cl-].c1ccc2c(c1)[I+]c1ccccc1-2 [DPI, diphenyleneiodium chloride]
IC50 (cancer stem cells (CSCs)): ~3 nM
potency for targeting CSCs relative to Palbociclib (cancer stem cells (CSCs); versus Palbociclib): approximately 30 times

SMILES: CCc1c2c(nc3ccc(OC(=O)N4CCC(N5CCCCC5)CC4)cc13)-c1cc3c(c(=O)n1C2)COC(=O)[C@]3(O)CC [Irinotecan]
sensitivity of DoxyR-CSCs to the drug [1]: sensitive

SMILES: O=C(Nc1ccc([N+](=O)[O-])cc1Cl)c1cc(Cl)ccc1O [Niclosamide]
sensitivity of DoxyR-CSCs to the drug [1]: sensitive

IC50 (cancer stem cells (CSCs)): ~100 nM
SMILES: CC(=O)c1c(C)c2cnc(Nc3ccc(N4CCNCC4)cn3)nc2n(C2CCCC2)c1=O [Palbociclib]

SMILES: CNC(=O)c1cc(Oc2ccc(NC(=O)Nc3ccc(Cl)c(C(F)(F)F)c3)cc2)ccn1 [Sorafenib]
sensitivity of DoxyR-CSCs to the drug [1]: sensitive

SMILES: CC(C)(C)C(O)/C=C/c1ccc2c(c1)OCO2 (centres unmarked) [Stiripentol]
sensitivity of DoxyR-CSCs to the drug [1]: sensitive

SMILES: O=C1O[C@H]([C@@H](O)CO)C(O)=C1O [Vitamin C]
sensitivity of DoxyR-CSCs to the drug [1]: sensitive

inhibition of mevalonate metabolism [2]: inhibit
SMILES: COc1ccc([C@@H]2CC(=O)c3c(O)cc(O[C@@H]4O[C@H](COC(=O)CC(C)(O)CC(=O)O)[C@@H](O)[C@H](O)[C@H]4O[C@@H]4O[C@@H](C)[C@H](O)[C@@H](O)[C@H]4O)cc3O2)cc1O (some centres unmarked) [brutieridin]
inhibition of CSC propagation / 3D spheroid formation (in words) (cancer stem cells (CSCs)): inhibit

inhibition of mevalonate metabolism [2]: inhibit
SMILES: C[C@@H]1O[C@@H](O[C@@H]2[C@@H](Oc3cc(O)c4c(c3)O[C@H](c3ccc(O)cc3)CC4=O)O[C@@H](COC(=O)C[C@@](C)(O)CC(=O)O)[C@H](O)[C@H]2O)[C@@H](O)[C@H](O)[C@H]1O [melitidin]
inhibition of CSC propagation / 3D spheroid formation (in words) (cancer stem cells (CSCs)): inhibit

SMILES: CC[C@H]1/C=C/C=C/C[C@@H](C)[C@H](O)[C@@](C)(O)C(=O)[C@@H](C)[C@H](O)[C@@H](C)C(=O)[C@@H](C)[C@H](O)[C@@H](C)/C=C/C(=O)O[C@@H]2[C@H](C)[C@H](CC1)O[C@]1(CC[C@H](C)[C@H](C[C@@H](C)O)O1)[C@H]2C [oligomycin]
inhibition of CSC propagation / 3D spheroid formation (in words) (cancer stem cells (CSCs)): effectively blocked
